Assay results published in PMC9820592, “Novel Chiral Ru(II) Complexes as Potential c-myc G-quadruplex DNA Stabilizers Inducing DNA Damage to Suppress Triple-Negative Breast Cancer Progression” (International Journal of Molecular Sciences, 2022).
Several values for one entry are separate records, joined by “and”; a condition that tells them apart may be missing. Equal entries are not always repeated.

How the values were obtained:
MDA-MB-231 cells [1] = assay: MTT assay, MDA-MB-231 cells; format: cell-based, human; settings: 72 h, read-out: Inhibitory Effect (IC50/μM) MDA-MB-231
Method: (§1) Liver cancer HepG2 cells, lung cancer A549 cells, breast cancer MCF-7 and MDA-MB-231 cells, human nasopharyngeal carcinoma CNE-1 cells, and human immortalized keratinocyte HaCaT cells were seeded in 96-well plates (5 × 10^3 cells per well) and cultured at 37 °C and 5% CO2 for 24 h. Cells were treated with different concentrations of the complexes (0, 1.5625, 3.125, 6.25, 12.5, 25, 50, and 100 µM) for 72 h. After adding 20 µL MTT (5 mg/mL) solution to each well, the cells were incubated for 4 h, and then 150 µL DMSO was added to each well. The optical density of each well was detected by a microplate reader at a wavelength of 570 nm. The cell survival rate (%) = A(experimental group)/A(control group) × 100%, and the IC50 value was analyzed and calculated based on the survival rate.

MCF-7 cells = assay: MTT assay, MCF-7 cells; format: cell-based, human; settings: 72 h, read-out: Inhibitory Effect (IC50/μM) MCF-7
Method: as §1

A549 cells = assay: MTT assay, A549 cells; format: cell-based, human; settings: 72 h, read-out: Inhibitory Effect (IC50/μM) A549
Method: as §1

HaCaT cells = assay: MTT assay, normal HaCaT keratinocytes; format: cell-based; settings: 72 h, normal human keratinocytes, read-out: Inhibitory Effect (IC50/μM) HaCaT
Method: as §1

MDA-MB-231 cells [2] = assay: EdU proliferation assay; format: cell-based, human; settings: control 50.2%
Method: The inhibitory effect of the chiral DPPZ-based Ru(II) complexes (Λ/Δ−1−3) was assessed against different human tumor cancer cells, such as breast cancer MCF-7, MDA-MB-231, lung cancer A549, liver carcinoma HepG2, nasopharyngeal carcinoma CNE-1, and human normal keratinocyte HaCaT cells, by MTT assay. […] Moreover, the inhibition of MDA-MB-231 cell proliferation by Δ−3 was detected by using an EdU (5-ethynyl-2′-deoxyuridine) staining kit, and EdU was incorporated into newly synthesized DNA in the sample cells. The red fluorescent azide is small enough to diffuse freely through native tissues and DNA, and it covalently cross-links to the EdU in a “click” chemistry reaction.

c-myc G-quadruplex DNA = assay: PCR-stop assay; format: biochemical, human; settings: Taq polymerase
Method: In this study, c-myc G4 DNA and its reverse complementary sequence c-myc rev were heated to 95 °C for 5 min, allowed to cool to room temperature, and incubated at 4 °C overnight. The system was supplemented with dNTPs and Taq polymerase for PCR amplification; heated at 95 °C for 3 min, 94 °C for 30 s, and 58 °C for 30 s, with an extension at 72 °C for 30 s (30 cycles); and analyzed by 15% nondenatured polyacrylamide gel electrophoresis and silver staining.

c-myc protein = c-myc protein expression in MDA-MB-231 cells; format: cell-based, human; settings: 40 μΜ, 72 h
MDA-MB-231 cells [3] = assay: Wound-healing assay; format: cell-based, human
Method: MDA-MB-231 cells (1 × 10^5 cells/well) were inoculated in a 6-well cell culture plate marked on the back until a single layer of cells covered more than 90% of the bottom of the culture plate, and a 200 µL pipette was used to scratch the culture. Different concentrations of the complexes (0, 2.5, 5, and 10 µM) were applied for 72 h. Migrating cells in the same field of view were observed and recorded every 24 h, and the average cell migration rate was calculated in three fields for every group.

MDA-MB-231 cells [4] = assay: FITC-gelatine invasion assay; format: cell-based, human; settings: 24 h
Method: An appropriate amount of FITC–gelatine glue was pipetted to cover the inner ring of the confocal cuvette, added to 0.5% glutaraldehyde for at least 30 min after solidification, and activated with 5 mg·mL^−1 sodium borohydride. Subsequently, 2 mL of cell suspension (5 × 10^4 cells) treated with different drug concentrations (0, 2.5, 5, and 10 µM) was added to each dish. The mixture was incubated at 37 °C for 24 h, and then the cells in each dish were fixed with 4% paraformaldehyde, incubated with phalloidin staining solution for 30 min and DAPI for 5 min, and imaged with a fluorescence microscope in the dark.

MDA-MB-231 cells [5] = assay: Flow cytometry, cell cycle distribution; format: cell-based, human; settings: 72 h; for G0/G1: control 63.16%
Method: (§2) MDA-MB-231 cells were treated with different concentrations of the complexes (0, 10, 20, and 40 μM) for 72 h, then collected and stained with an Annexin V-FITC/PI Apoptosis Detection Kit I (BD, 556547). The MDA-MB-231 cells were fixed with 70% ethanol at 4 °C for 30 min, and then collected and stained with PI/RNase Staining Buffer (BD, 550825). The cells were analyzed by flow cytometry (Beckman, CytoFLEX). All experiments were repeated three times.

MDA-MB-231 cells [6] = assay: Flow cytometry, apoptosis (Annexin V-FITC/PI); format: cell-based, human; settings: 72 h, control 2.77%
Method: as §2

HUVECs = assay: Tube formation assay; format: cell-based, human; settings: 10 μM, 6 h, VEGF 200 ng/mL
Method: Dissolving matrigel (4 °C, 24 h) was used to coat prechilled 96-well plates (50 μL/well, 37 °C, for at least 60 min). Then, the unsolid fluid was removed, and HUVECs at the density of 3 × 10^4 were cultured in DMEM with VEGF (200 ng/mL) containing the different concentrations of Δ−3 (0, 5, and 10 μM) for 6 h.

[7] = test system: subintestinal vessels (SIVs); assay: Angiogenic assay in Tg (fli1: EGFP) zebrafish; format: in vivo; settings: compared with control group
Method: The zebrafish model of transplanted breast cancer was constructed in accordance with the methods in the literature. Juvenile 48 h old breast cancer model zebrafish were placed in 48-well plates (n = 10), and 0.2 mL aquaculture water without or with Δ−3 (0, 2.5, 5, and 10 μM) was added for culture. Images were captured every 24 h using a fluorescence microscope to study the inhibitory effect of Δ−3 on zebrafish with breast cancer. In addition, the mean number of sprout and mean length of sprout in subintestinal vessels (SIVs) were analyzed by ImageProPlus software. The ethical protocols for the in vivo research on zebrafish complied with relevant laws.

IC50 (MDA-MB-231 cells [1]): 25.5 µM
IC50 (MCF-7 cells): 90.6 ± 6.34 µM
IC50 (A549 cells): 24.7 ± 0.28 µM
Substance: Δ-[Ru(bpy)2(3-NBEDPPZ)](ClO4)2 [Δ−3]
IC50 (HaCaT cells): 70.9 µM and 71 µM
proliferation rate (EdU) (MDA-MB-231 cells [2]; 10 μM): 34.9%
proliferation rate (EdU) (MDA-MB-231 cells [2]; 20 μM): 22.0%
proliferation rate (EdU) (MDA-MB-231 cells [2]; 40 μM): 5.1%
minimum concentration necessary for effective inhibition (PCR products) (c-myc G-quadruplex DNA): 2.5 µM
expression of the c-myc protein (c-myc protein): effectively downregulated
migration rate (wound healing) (MDA-MB-231 cells [3]; 10 μM, different treatment times): less than half that of the control
migration of cells (wound healing) (MDA-MB-231 cells [3]; 2.5 and 5 μM): inhibited inconspicuously
degraded areas (black holes) on FITC-gelatine (MDA-MB-231 cells [4]; 10 μM): did not result in a black hole
number of degraded areas on FITC-gelatine (MDA-MB-231 cells [4]; 2.5 and 5 μM, control six degraded areas): markedly reduced
G2/M (MDA-MB-231 cells [5]; 10 μM): 4.07%
S (MDA-MB-231 cells [5]; 10 μM): 30.96%
SubG1 (MDA-MB-231 cells [5]; 10 μM): 5.40%
G0/G1 (MDA-MB-231 cells [5]; 10 μM): 64.97%
G2/M (MDA-MB-231 cells [5]; 20 μM): 3.13%
S (MDA-MB-231 cells [5]; 20 μM): 27.26%
SubG1 (MDA-MB-231 cells [5]; 20 μM): 4.45%
G0/G1 (MDA-MB-231 cells [5]; 20 μM): 69.61%
G2/M (MDA-MB-231 cells [5]; 40 μM): 2.93%
S (MDA-MB-231 cells [5]; 40 μM): 29.70%
SubG1 (MDA-MB-231 cells [5]; 40 μM): 14.97%
G0/G1 (MDA-MB-231 cells [5]; 40 μM): 67.37%
proportion of apoptotic cells (MDA-MB-231 cells [6]; 10 μM): 5.39%
proportion of apoptotic cells (MDA-MB-231 cells [6]; 20 μM): 7.95%
proportion of apoptotic cells (MDA-MB-231 cells [6]; 40 μM): 16.27%
tubular structures of HUVECs on Matrigel (HUVECs): sparse and incomplete
number and length of SIVs [7]: significantly decreased
